Measurements from paper PMC3590142 (PLoS ONE, 2013).

T1: RFT-1 (rft-1, Y47D7A.16) (Caenorhabditis elegans, UniProt Q3LFN0)
T1 construct: full-length 1,284 nt cDNA with corrected 3' end (differs from the older gene model) in pCI-neo; untagged; transient expression in human ARPE-19 cells; 11 predicted TM domains
T1 sequence (Q3LFN0 1-427): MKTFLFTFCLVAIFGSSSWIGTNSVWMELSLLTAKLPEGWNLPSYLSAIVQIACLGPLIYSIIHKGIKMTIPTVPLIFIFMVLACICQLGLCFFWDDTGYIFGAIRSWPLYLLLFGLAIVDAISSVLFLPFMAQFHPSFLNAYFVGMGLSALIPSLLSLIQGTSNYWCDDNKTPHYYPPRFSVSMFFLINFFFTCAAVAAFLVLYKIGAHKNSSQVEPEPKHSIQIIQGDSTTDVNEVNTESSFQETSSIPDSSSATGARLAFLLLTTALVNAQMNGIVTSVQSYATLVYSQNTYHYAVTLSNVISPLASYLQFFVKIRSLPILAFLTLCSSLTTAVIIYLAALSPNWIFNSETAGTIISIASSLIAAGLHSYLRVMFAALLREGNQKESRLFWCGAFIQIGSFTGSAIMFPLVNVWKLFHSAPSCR

T2: RFT-2 (rft-2, Y47D7A.14) (Caenorhabditis elegans, UniProt G4SDH4)
T2 construct: full-length cDNA in pCI-neo; untagged; transient expression in human ARPE-19 cells
T2 sequence (G4SDH4 1-476): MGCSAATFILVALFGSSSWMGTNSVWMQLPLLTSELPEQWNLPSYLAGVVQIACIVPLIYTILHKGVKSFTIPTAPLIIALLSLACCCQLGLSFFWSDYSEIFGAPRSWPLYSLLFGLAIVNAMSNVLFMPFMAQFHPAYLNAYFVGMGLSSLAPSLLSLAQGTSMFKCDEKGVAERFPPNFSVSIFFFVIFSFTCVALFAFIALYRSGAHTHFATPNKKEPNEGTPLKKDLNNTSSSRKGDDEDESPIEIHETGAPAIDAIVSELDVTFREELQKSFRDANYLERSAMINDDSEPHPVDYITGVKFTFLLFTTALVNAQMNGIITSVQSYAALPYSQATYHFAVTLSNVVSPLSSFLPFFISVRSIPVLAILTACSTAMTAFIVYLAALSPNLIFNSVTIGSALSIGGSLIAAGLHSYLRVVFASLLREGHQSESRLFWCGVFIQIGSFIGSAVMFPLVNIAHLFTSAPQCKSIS


Key:
RFT-1 (rft-1, Y47D7A.16) = target: T1, RFT-1 (rft-1, Y47D7A.16); test: inhibition of [3H]riboflavin uptake, transfected ARPE-19 cells, empty-vector uptake subtracted; assay type: cell-based; conditions: competition with [3H]riboflavin; 37°C, 5 min, Krebs-Ringer buffer
RFT-2 (rft-2, Y47D7A.14) = target: T2, RFT-2 (rft-2, Y47D7A.14); test: [3H]riboflavin uptake, transfected ARPE-19 cells, empty-vector uptake subtracted; conditions: 14 nM [3H]riboflavin, pH 5.5, 37°C, 5 min, Krebs-Ringer buffer; labelled compound
[1] = substrate: Cc1cc2nc3c(=O)[nH]c(=O)nc-3n(C[C@H](O)[C@H](O)[C@H](O)CO)c2cc1C; test: cells, lysate or membranes; conditions: 0.01–10 µM riboflavin, 37°C, 5 min, Krebs-Ringer buffer, labelled compound

Row | Molecule | inhibition of [3H]riboflavin uptake, transfected ARPE-19 cells, empty-vector upt (RFT-1 (rft-1, Y47D7A.16)) | other results
1 | Cc1cc2nc3[nH]c(=O)[nH]c(=O)c3nc2cc1C [lumichrome] | structural analogues lumichrome and lumiflavin significantly inhibited [^3H] riboflavin uptake | 
2 | Cc1cc2nc3c(=O)[nH]c(=O)nc-3n(C)c2cc1C [lumiflavin] | structural analogues lumichrome and lumiflavin significantly inhibited [^3H] riboflavin uptake | 
3 | Cc1cc2nc3c(=O)[nH]c(=O)nc-3n(C[C@H](O)[C@H](O)[C@H](O)CO)c2cc1C [riboflavin] |  | [3H]riboflavin uptake, transfected ARPE-19 cells, empty-vector uptake subtracted (RFT-2 (rft-2, Y47D7A.14)): rft-2 transfected cells also had significantly higher riboflavin uptake compared to controls
4 | RFT-1 (rft-1, Y47D7A.16) (Caenorhabditis elegans) (protein) MKTFLFTFCLVAIFGSSSWIGTNSVWMELSLLTAKLPEGWNLPSYLSAIVQIACLGPLIYSIIHKGIKMTIPTVPLIFIFMVLACICQLGLCFFWDDTGYIFGAIRSWPLYLLLFGLAIVDAISSVLFLPFMAQFHPSFLNAYFVGMGLSALIPSLLSLIQGTSNYWCDDNKTPHYYPPRFSVSMFFLINFFFTCAAVAAFLVLYKIGAHKNSSQVEPEPKHSIQIIQGDSTTDVNEVNTESSFQETSSIPDSSSATGARLAFLLLTTALVNAQMNGIVTSVQSYATLVYSQNTYHYAVTLSNVISPLASYLQFFVKIRSLPILAFLTLCSSLTTAVIIYLAALSPNWIFNSETAGTIISIASSLIAAGLHSYLRVMFAALLREGNQKESRLFWCGAFIQIGSFTGSAIMFPLVNVWKLFHSAPSCR |  | Km [1]: 1.4 ± 0.5 µM
